Test results: US7115624B1, “Method of inhibiting protein tyrosine phosphatase 1B and/or T-cell protein tyrosine phosphatase 4 and/or other PTPases with an Asp residue at position 48” (Novo Nordisk A/S, priority 1999, dated 2006)

Assays:
Assay in all cases: PTPase inhibition, p-nitrophenyl phosphate substrate, Ki
Assay type in all cases: biochemical
CD45 = target: T1, CD45 (Homo sapiens, UniProt P08575); settings: pH 7.0 (Table 5); read-out: Ki values, CD45
T1 sequence (P08575 599-1306 limits assumed): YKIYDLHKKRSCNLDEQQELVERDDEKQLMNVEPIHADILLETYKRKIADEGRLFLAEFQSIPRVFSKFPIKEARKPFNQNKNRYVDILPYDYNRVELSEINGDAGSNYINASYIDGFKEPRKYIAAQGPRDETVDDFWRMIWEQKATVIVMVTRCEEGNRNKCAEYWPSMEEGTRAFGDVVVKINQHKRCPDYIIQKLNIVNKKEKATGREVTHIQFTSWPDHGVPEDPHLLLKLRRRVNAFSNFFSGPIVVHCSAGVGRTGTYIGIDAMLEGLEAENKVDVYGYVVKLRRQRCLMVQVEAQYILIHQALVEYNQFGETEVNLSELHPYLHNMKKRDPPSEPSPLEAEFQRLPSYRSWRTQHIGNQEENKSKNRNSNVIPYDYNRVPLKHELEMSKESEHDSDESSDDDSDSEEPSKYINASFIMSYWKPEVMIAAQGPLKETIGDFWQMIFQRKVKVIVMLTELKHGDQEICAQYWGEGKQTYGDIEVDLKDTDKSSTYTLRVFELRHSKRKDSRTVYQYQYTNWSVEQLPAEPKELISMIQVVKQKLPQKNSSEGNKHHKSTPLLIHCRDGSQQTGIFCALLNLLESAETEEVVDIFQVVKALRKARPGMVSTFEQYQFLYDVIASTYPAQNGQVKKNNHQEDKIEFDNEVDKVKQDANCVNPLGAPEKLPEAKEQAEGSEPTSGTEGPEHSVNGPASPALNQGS
Procedure: (§3) The assay conditions are as follows. Appropriate concentrations of the compounds of the invention (e.g., 0.1 to 100 μM) are added to the reaction mixtures containing different concentrations of the substrate, p-nitrophenyl phosphate (range: 0.16 to 10 mM—final assay concentration). The buffer used was 50 mM HEPES pH 7.0, 100 mM sodium chloride, 0.1% (w/v) bovine serum albumin, 5 mM glutathione, and 1 mM EDTA. The reaction was started by addition of the enzyme and carried out in microtiter plates at 25° C. for 60 minutes. The reactions are stopped by addition of NaOH. […] The data are analyzed using nonlinear regression fit to classical Michaelis Menten enzyme kinetic models. Inhibition is expressed as Ki values in μM.

LAR = target: T2, LAR (Homo sapiens, UniProt P10586); settings: pH 7.0 (Table 5); read-out: Ki values, LAR
T2 sequence (P10586 1285-1907 limits assumed): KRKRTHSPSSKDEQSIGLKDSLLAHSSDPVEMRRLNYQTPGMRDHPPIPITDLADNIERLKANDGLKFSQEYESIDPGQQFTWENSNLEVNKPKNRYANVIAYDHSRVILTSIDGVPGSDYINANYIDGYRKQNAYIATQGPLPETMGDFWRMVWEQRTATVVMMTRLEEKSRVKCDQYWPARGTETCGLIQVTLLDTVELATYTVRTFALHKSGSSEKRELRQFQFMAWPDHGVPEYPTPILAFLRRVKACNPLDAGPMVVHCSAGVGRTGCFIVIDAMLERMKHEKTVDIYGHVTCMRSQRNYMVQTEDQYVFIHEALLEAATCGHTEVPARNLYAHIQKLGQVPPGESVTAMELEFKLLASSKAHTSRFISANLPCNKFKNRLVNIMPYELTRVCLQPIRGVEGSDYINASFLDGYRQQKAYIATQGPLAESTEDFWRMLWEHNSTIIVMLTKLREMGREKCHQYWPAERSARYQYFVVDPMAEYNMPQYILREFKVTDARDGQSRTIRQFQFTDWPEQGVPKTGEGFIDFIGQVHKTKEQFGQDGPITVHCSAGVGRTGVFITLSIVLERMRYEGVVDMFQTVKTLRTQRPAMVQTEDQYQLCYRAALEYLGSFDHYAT
Procedure: The compounds are evaluated for biological activity with a truncated form of PTP1B (corresponding to the first 321 amino acids), which was expressed in E. coli and purified to apparent homogeneity using published procedures well-known to those skilled in the art. The enzyme reactions are carried out using standard conditions essentially as described by Burke et al. (Biochemistry 35; 15989–15996 (1996)) incorporated by reference. […] Appropriate concentrations of the compounds of the invention (e.g., 0.1 to 100 μM) are added to the reaction mixtures containing different concentrations of the substrate, p-nitrophenyl phosphate (range: 0.16 to 10 mM—final assay concentration). The buffer used was 50 mM HEPES pH 7.0, 100 mM sodium chloride, 0.1% (w/v) bovine serum albumin, 5 mM glutathione, and 1 mM EDTA. The reaction was started by addition of the enzyme and carried out in microtiter plates at 25° C. for 60 minutes. The reactions are stopped by addition of NaOH. The enzyme activity was determined by measurement of the absorbance at 405 nm with appropriate corrections for absorbance at 405 nm of the compounds and p-nitrophenyl phosphate. The data are analyzed using nonlinear regression fit to classical Michaelis Menten enzyme kinetic models. Inhibition is expressed as Ki values in μM.

PTPβ = PTPβ (Homo sapiens, UniProt P23467); settings: pH 7.0 (Table 5); read-out: Ki values, PTPβ
Procedure: as §3

PTPε = target: T3, PTPε (Homo sapiens, UniProt P23469); settings: pH 7.0 (Table 5); read-out: Ki values, PTPε
T3 construct: PTPε D1
Procedure: as §3

GLEPP1 = target: T4, GLEPP1 (Homo sapiens, UniProt Q16827); settings: pH 7.0 (Table 5)
T4 sequence (Q16827 938-1195 limits assumed): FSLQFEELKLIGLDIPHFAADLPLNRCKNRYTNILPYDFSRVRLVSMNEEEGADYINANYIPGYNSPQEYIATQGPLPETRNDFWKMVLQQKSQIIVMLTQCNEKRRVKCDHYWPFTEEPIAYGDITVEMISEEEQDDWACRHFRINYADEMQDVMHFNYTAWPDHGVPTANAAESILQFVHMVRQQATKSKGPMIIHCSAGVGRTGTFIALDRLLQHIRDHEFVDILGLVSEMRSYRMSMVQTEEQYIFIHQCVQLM
Procedure: (§1) Specificity against a broad set of PTPs—It was next analyzed if the side chain of NNC 52–1153 would cause the increased selectivity against other PTPs. NNC 52–1153 was tested against a set of 10 different wt PTP domains (Table 5). It appears from this table that a substantial increase in affinity for PTP1B and TC-PTP has been obtained, while at the same time introducing a very high degree of selectivity against many other PTPs representing a broad spectrum of this class of enzymes (having Asp 48).
(§2) The assay conditions are as follows.

TC-PTP = target: T5, TC-PTP (Homo sapiens, UniProt P17706); settings: pH 7.0 (Table 5)
T5 sequence (P17706 5-275 limits assumed): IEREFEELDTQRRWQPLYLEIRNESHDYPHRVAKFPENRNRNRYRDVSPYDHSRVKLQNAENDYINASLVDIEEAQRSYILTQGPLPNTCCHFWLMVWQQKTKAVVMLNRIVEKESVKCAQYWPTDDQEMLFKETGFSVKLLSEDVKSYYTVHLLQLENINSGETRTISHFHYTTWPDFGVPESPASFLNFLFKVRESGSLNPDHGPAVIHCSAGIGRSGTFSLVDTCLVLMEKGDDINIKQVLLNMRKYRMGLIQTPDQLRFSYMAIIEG
Procedure: as §1, §2

PTPα = target: T6, PTPα (Homo sapiens, UniProt P18433); settings: pH 7.0 (Table 5); read-out: Ki values, PTPα
T6 construct: PTPα D1
T6 sequence (P18433 241-501 limits assumed): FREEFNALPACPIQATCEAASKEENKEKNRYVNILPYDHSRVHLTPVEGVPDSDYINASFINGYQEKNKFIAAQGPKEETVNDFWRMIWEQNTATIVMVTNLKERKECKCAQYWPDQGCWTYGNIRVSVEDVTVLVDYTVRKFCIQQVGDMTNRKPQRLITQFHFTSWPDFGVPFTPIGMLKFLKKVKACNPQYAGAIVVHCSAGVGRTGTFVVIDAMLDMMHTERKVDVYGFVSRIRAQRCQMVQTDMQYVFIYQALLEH

T3 sequence (P23469 135-394 limits assumed): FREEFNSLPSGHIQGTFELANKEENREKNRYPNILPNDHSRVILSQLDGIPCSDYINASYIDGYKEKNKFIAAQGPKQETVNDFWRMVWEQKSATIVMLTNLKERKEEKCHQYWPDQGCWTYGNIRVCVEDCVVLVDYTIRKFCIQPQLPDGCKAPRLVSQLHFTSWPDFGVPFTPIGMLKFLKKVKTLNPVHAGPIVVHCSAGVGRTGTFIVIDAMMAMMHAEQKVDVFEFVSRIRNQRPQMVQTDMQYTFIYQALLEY
Sequence of PTPβ (P23467 1703-1963 limits assumed): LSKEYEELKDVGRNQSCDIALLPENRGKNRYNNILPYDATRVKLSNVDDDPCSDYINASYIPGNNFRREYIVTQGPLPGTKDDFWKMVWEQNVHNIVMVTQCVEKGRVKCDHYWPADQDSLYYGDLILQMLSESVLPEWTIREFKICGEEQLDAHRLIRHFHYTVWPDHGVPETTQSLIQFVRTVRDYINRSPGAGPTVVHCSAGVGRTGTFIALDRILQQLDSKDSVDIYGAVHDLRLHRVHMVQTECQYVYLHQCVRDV

- Ki (CD45): 500 µM
- Ki (LAR): 120 µM
- Ki (PTPβ): 15 µM
- Ki (PTPε): 460 µM
- Ki (GLEPP1): 150 µM
- Ki (TC-PTP): 0.6 µM
- Ki (PTPα): 700 µM
SMILES: O=C(O)C(=O)Nc1sc2c(c1C(=O)O)CCOC2COC1=NS(=O)(=O)c2ccccc21 (stereo not shown) [Compound N, 7-(1,1-dioxo-1H-benzo[d]isothiazol-3-yloxymethyl)-2-(oxalyl-amino)-4,7-dihyd ro-5H-thieno[2,3-c]pyran-3-carboxylic acid]
